Assay results reported in patent US9469633B2 (dated 2016).

With O=C(/C=C(\c1cc(Cl)cc(Cl)c1)C(F)(F)F)c1ccco1 as the molecule, how does the melting point read?
Its melting point is 72 to 76 °C.

For O=C1C[C@](c2cc(Cl)cc(Cl)c2)(C(F)(F)F)C(=O)N1, which melting point is on record?
Its melting point is 138 to 141 °C.
